Consider one substance from publication PMC4127523, “A novel 11β-hydroxysteroid dehydrogenase type1 inhibitor CNX-010-49 improves hyperglycemia, lipid profile and reduces body weight in diet induced obese C57B6/J mice with a potential to provide cardio protective benefits” (BMC Pharmacology & Toxicology, 2014).

The target of this assay is T1, 11β-hydroxysteroid dehydrogenase type 1 (11β-HSD1), mouse isoform (Mus musculus, UniProt P50172).
T1 construct: gene Hsd11b1; native 11β-HSD1 in differentiated C2C12 myotubes
T1 sequence (P50172 whole entry, canonical isoform): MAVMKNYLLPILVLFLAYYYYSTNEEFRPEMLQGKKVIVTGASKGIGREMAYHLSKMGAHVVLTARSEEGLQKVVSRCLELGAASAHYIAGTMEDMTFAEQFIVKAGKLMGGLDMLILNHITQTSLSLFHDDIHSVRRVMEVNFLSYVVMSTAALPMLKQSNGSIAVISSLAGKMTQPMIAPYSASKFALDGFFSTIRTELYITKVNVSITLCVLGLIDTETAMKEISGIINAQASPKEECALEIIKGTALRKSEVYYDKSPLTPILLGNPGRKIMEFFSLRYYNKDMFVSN
Description: Cell-based cortisone to cortisol conversion in C2C12 myotubes, LCMS/MS.

The IC50 is the concentration needed to halve the response being measured. A high value points to weaker potency in that assay. Consider CNX-010-49, for which it took 64 nM to reach half-maximal inhibition (IC50). In other words, the double-digit nanomolar range.
